tested on: C2C12 muscle cells; assay: Analysis of glucose absorption (2-deoxyglucose) in differentiated C2C12 muscle cells; assay type: cell-based; settings: test materials 10 μM, times relative to control group
Outline: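 Differentiated C2C12 myotubes (6 days in 1% serum) held 3 h in KRB with 5 mM glucose, then given test material at 10 μM. After 30 min, 0.2 μCi 2-deoxyglucose added for 20 min; uptake measured by radioactive counting of NaOH lysates.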

| SMILES | Glucose absorption |
| --- | --- |
| COc1ccc(CNc2nc(Cc3ccccc3)nc3ccccc23)c(OC)c1 [Compound 333, (2-Benzylquinazolino-4-yl)-(2,4-dimethoxybenzyl)-amine] | 1.2 |
| COc1ccc(Nc2nc(-c3ccccc3)nc3ccccc23)cc1 [Compound 70, (4-Methoxyphenyl)-(2-phenylquinazolino-4-yl)-amine] | 1.0 |
| Cc1nc(NCCO)c2ccccc2n1 [Compound 174, 2-(2-Methylquinazolino-4-ylamino)-ethanol] | 1.2 |
| CCSc1nc(NCc2ccccc2F)c2ccccc2n1 [Compound 39, (2-Ethylsulfanylquinazolino-4-yl)-(2-fluorobenzyl)-amine] | 0.9 |
| c1ccc2c(CNc3nc(-c4ccncc4)nc4ccccc34)cccc2c1 [Compound 253, Naphthaleno-1-ylmethyl-(2-pyridino-4-ylquinazolino-4-yl)-amine] | 1.3 |
| CC(Nc1nc(-c2ccccc2)nc2ccccc12)c1ccccc1 (stereo not drawn) [Compound 87, (1-Phenylethyl)-(2-phenylquinazolino-4-yl)-amine] | 1.0 |
| OCCNc1nc(Cc2ccccc2)nc2ccccc12 [Compound 222, 2-(2-Benzylquinazolino-4-ylamino)-ethanol] | 1.2 |
| c1ccc(Cc2nc(NCc3ccc4c(c3)OCO4)c3ccccc3n2)cc1 [Compound 218, Benzo[1,3]dioxol-5-ylmethyl-(2-benzylquinazolino-4-yl)-amine] | 2.0 |
| COc1ccc(Nc2nc(-c3ccccc3)nc3ccccc23)cc1O [Compound 84, 2-Methoxy-5-(2-phenylquinazolino-4-ylamino)phenol] | 1.0 |
| COCCNc1nc(-c2ccccc2)nc2ccccc12 [Compound 67, (2-Methoxy-ethyl)-(2-phenylquinazolino-4-yl)-amine] | 0.9 |
| Clc1ccc(-c2nc(NCc3ccc4c(c3)OCO4)c3ccccc3n2)cc1 [Compound 266, Benzo[1,3]dioxol-5-ylmethyl-[2-(4-chlorophenyl)-quinazolino-4-yl]-amine] | 1.1 |
| c1ccc(CCCCNc2nc(-c3ccccc3)nc3ccccc23)cc1 [Compound 52, (4-Phenylbutyl)-(2-phenylquinazolino-4-yl)-amine] | 1.3 |
| COc1ccc(CNc2nc(Cc3ccccc3)nc3ccccc23)cc1OC [Compound 331, (2-Benzylquinazolino-4-yl)-(3,4-dimethoxybenzyl)-amine] | 1.2 |
| CC(C)OCCCNc1nc(-c2ccccc2)nc2ccccc12 [Compound 62, (3-Isopropoxypropyl)-(2-phenylquinazolino-4-yl)-amine] | 1.1 |
| OCCCCCNc1nc(-c2ccccc2)nc2ccccc12 [Compound 85, 5-(2-Phenylquinazolino-4-ylamino)-pentane-1-ol] | 1.0 |
| COc1ccc(CNc2nc(-c3ccncc3)nc3ccccc23)cc1 [Compound 249, (4-Methoxybenzyl)-(2-pyridino-4-ylquinazolino-4-yl)-amine] | 0.9 |
| Fc1cccc(CCNc2nc(-c3ccc(Cl)cc3)nc3ccccc23)c1 [Compound 268, [2-(4-Chlorophenyl)-quinazolino-4-yl]-[2-(3-fluorophenyl)-ethyl]-amine] | 1.1 |
| Cc1ccccc1Nc1nc(-c2ccccc2)nc2ccccc12 [Compound 71, (2-Phenylquinazolino-4-yl)-o-tollylamine] | 1.0 |
| COc1ccc(CNc2nc(-c3ccccn3)nc3ccccc23)cc1 [Compound 225, (4-Methoxybenzyl)-(2-pyridino-2-ylquinazolino-4-yl)-amine] | 1.3 |
| Fc1cccc(CCNc2nc(C3CCCCC3)nc3ccccc23)c1 [Compound 208, (2-Cyclohexylquinazolino-4-yl)-[2-(3-fluorophenyl)-ethyl]-amine] | 2.0 |
| OCCNc1nc(-c2ccccn2)nc2ccccc12 [Compound 234, 2-(2-Pyridino-2-ylquinazolino-4-ylamino)-ethanol] | 1.1 |
| CCSc1nc(NCc2cc(OC)cc(OC)c2)c2ccccc2n1 [Compound 38, (3,5-Dimethoxybenzyl)-(2-ethylsulfanylquinazolino-4-yl)-amine] | 1.5 |
| OCCOCCNc1nc(-c2ccccn2)nc2ccccc12 [Compound 233, 2-[2-(2-Pyridino-2-ylquinazolino-4-ylamino)-ethoxy]-ethanol] | 1.4 |
| CC(C)(C)c1nc(NCc2cccc(F)c2)c2ccccc2n1 [Compound 195, (2-tert-Butylquinazolino-4-yl)-(3-fluorobenzyl)-amine] | 1.2 |
| COc1cccc(CNc2nc(-c3ccccc3)nc3ccccc23)c1OC [Compound 93, (2,3-Dimethoxybenzyl)-(2-phenylquinazolino-4-yl)-amine] | 1.1 |
| CC(C)(C)c1nc(NCCOCCO)c2ccccc2n1 [Compound 197, 2-[2-(2-tert-Butylquinazolino-4-ylamino)-ethoxy]-ethanol] | 1.3 |

| SMILES | Glucose absorption |
| --- | --- |
| Fc1cccc(CCNc2nc(-c3ccccn3)nc3ccccc23)c1 [Compound 232, [2-(3-Fluorophenyl)-ethyl]-(2-pyridino-2-ylquinazolino-4-yl)-amine] | 1.2 |
| CCSc1nc(NCCN2CCCCC2)c2ccccc2n1 [Compound 44, (2-Ethylsulfanylquinazolino-4-yl)-(2-piperidino-1-ylethyl)-amine] | 1.3 |
| c1ccc(CNc2nc(-c3ccccn3)nc3ccccc23)cc1 [Compound 223, Benzyl-(2-pyridino-2-ylquinazolino-4-yl)-amine] | 1.7 |
| Fc1cccc(CCNc2nc(-c3cccnc3)nc3ccccc23)c1 [Compound 244, [2-(3-Fluorophenyl)-ethyl]-(2-pyridino-3-ylquinazolino-4-yl)-amine] | 0.4 |
| Clc1ccc(CCNc2nc(-c3ccccc3)nc3ccccc23)c(Cl)c1 [Compound 127, [2-(2,4-Dichlorophenyl)-ethyl]-(2-phenylquinazolino-4-yl)-amine] | 1.4 |
| COc1cccc(OC)c1CNc1nc(-c2ccccc2)nc2ccccc12 [Compound 154, (2,6-Dimethoxybenzyl)-(2-phenylquinazolino-4-yl)-amine] | 2.5 |
| c1ccc(-c2nc(NCc3ccncc3)c3ccccc3n2)cc1 [Compound 141, (2-Phenylquinazolino-4-yl)-pyridino-4-ylmethylamine] | 2.1 |
| COc1ccccc1Nc1nc(-c2ccccc2)nc2ccccc12 [Compound 77, (2-Methoxyphenyl)-(2-phenylquinazolino-4-yl)-amine] | 1.4 |
| CCSc1nc(NCCOC)c2ccccc2n1 [Compound 34, (2-Ethylsulfanylquinazolino-4-yl)-(2-methoxy-ethyl)-amine] | 1.3 |
| Fc1cccc(CCNc2nc(-c3ccncc3)nc3ccccc23)c1 [Compound 256, [2-(3-Fluorophenyl)-ethyl]-(2-pyridino-4-ylquinazolino-4-yl)-amine] | 0.6 |
| CCSc1nc(NCCN2CCCC2)c2ccccc2n1 [Compound 45, (2-Ethylsulfanylquinazolino-4-yl)-(2-pyrrolidino-1-ylethyl)-amine] | 1.1 |
| OCCNc1nc(-c2ccncc2)nc2ccccc12 [Compound 258, 2-(2-Pyridino-4-ylquinazolino-4-ylamino)-ethanol] | 1.3 |
| c1ccc(CCCCNc2nc(-c3cccnc3)nc3ccccc23)cc1 [Compound 240, (4-Phenylbutyl)-(2-pyridino-3-ylquinazolino-4-yl)-amine] | 1.0 |
| c1ccc(-c2nc(NCCc3ccccn3)c3ccccc3n2)cc1 [Compound 102, (2-Phenylquinazolino-4-yl)-(2-pyridino-2-ylethyl)-amine] | 1.2 |
| c1ccc(CCNc2nc(-c3ccccc3)nc3ccccc23)cc1 [Compound 68, Phenethyl-(2-phenylquinazolino-4-yl)-amine] | 1.3 |
| CCCCCCCCCCCc1ccc(Nc2nc(-c3ccccc3)nc3ccccc23)cc1 [Compound 74, (2-Phenylquinazolino-4-yl)-(4-undecyl-phenyl)-amine] | 0.9 |
| CCSc1nc(NCCCOC(C)C)c2ccccc2n1 [Compound 33, (2-Ethylsulfanylquinazolino-4-yl)-(3-isopropoxypropyl)-amine] | 1.2 |
| c1ccc(CNc2nc(-c3ccccc3)nc3ccccc23)cc1 [Compound 86, Benzyl-(2-phenylquinazolino-4-yl)-amine] | 1.4 |
| COc1ccc(CCNc2nc(-c3ccccc3)nc3ccccc23)cc1OC [Compound 107, [2-(3,4-Dimethoxyphenyl)-ethyl]-(2-phenylquinazolino-4-yl)-amine] | 0.4 |
| CCN1CCCC1CNc1nc(-c2ccccc2)nc2ccccc12 (stereo not drawn) [Compound 117, (1-Ethyl-pyrrolidino-2-ylmethyl)-(2-phenylquinazolino-4-yl)-amine] | 1.4 |
| OCCOCCNc1nc(-c2cccnc2)nc2ccccc12 [Compound 245, 2-[2-(2-Pyridino-3-ylquinazolino-4-ylamino)-ethoxy]-ethanol] | 1.2 |
| COc1ccc(CNc2nc(C(C)(C)C)nc3ccccc23)cc1 [Compound 189, (2-tert-Butylquinazolino-4-yl)-(4-methoxybenzyl)-amine] | 1.3 |
| Oc1ccccc1CCNc1nc(-c2ccccc2)nc2ccccc12 [Compound 152, 2-[2-(2-Phenylquinazolino-4-ylamino)-ethyl]-phenol] | 2.4 |
| CC(C)(C)c1nc(NCc2cccc(C(F)(F)F)c2)c2ccccc2n1 [Compound 190, (2-tert-Butylquinazolino-4-yl)-(3-trifluoromethylbenzyl)-amine] | 1.2 |
| c1ccc(-c2nc(NCc3ccc4c(c3)OCO4)c3ccccc3n2)cc1 [Compound 65, Benzo[1,3]dioxol-5-ylmethyl-(2-phenylquinazolino-4-yl)-amine] | 1.4 |

— patent publication US20080207614A1, “QUINAZOLINE DERIVATIVES FOR THE TREATMENT AND PREVENTION OF DIABETES AND OBESITY” (SK CHEMICALS CO., LTD., priority 2004, published 2008)
